Measured values from patent USRE43327E1, “Hydrophobic polyamine analogs and methods for their use” (Aminex Therapeutics, Inc., priority 2001, dated 2012).
pEC50, pIC50, pKi: −log10 of the molar value. Where “and” joins values, the source holds several entries; their conditions need not be identical. Equal entries are not always repeated. Where two headings read alike, the source gives them in different places.

Tests used:
[1] = system: 4 cell lines (A375, MDA-MB-231, PC-3, SK-OV-3); assay: Growth inhibition with DFMO, average over 4 cell lines; type: cell-based; details: Table 3; average over cell lines, with DFMO; read-out: AVG. EC50
Procedure: Cells were plated in 96-well plates such that they would be in log growth for the duration of the assay. The day after plating, PAs were added to the cells, and growth, if any, permitted to continue for six days in the presence of 1 mM AG and 0.5 μM SPD to insure that any growth inhibition was not the result of depletion of external polyamines in the media. At the end of the six days, cell growth was measured by MTS/PMS dye assay (Cell Titer 96 Aqueous Non-Radioactive Cell Proliferation Assay; Promega, Madison, Wis.).

PC-3 [2] = assay: Growth inhibition assay, PA alone, PC-3; type: cell-based; details: PA alone (no DFMO), six days, repeat determinations, read-out: Cell Line IC50 PC-3
Procedure: (§1) Medias were obtained from Mediatech, Inc. (Herdon, Va.) and serums from Gibco BRL (Gaithersburg, Md.). 50 U/ml penicillin, 50 μg/ml streptomycin and 2 mM L-glutamine (all from Bio Whittaker, Walkersville, Md.) were included in all cultures. […] When cells were cultured with polyamines or ORI compounds, 1 mM aminoguanidine (AG; Sigma) was included to inhibit serum amine oxidase activity.

[3] = system: polyamine transport in MDA-MB-231 cells; assay: Polyamine transport and Ki assay (3H-spermidine uptake); type: cell-based; details: 15 min 37° C., Lineweaver-Burke analysis
Procedure: [2,9-^3H]spermidine (SPD) from DuPont NEN, Boston, Mass. was added alone or simultaneously with PAs to 24-well plates containing MDA-MB-23 1 cells in log growth. The cells were incubated at 37° C. for 15 min to determine initial rate polyamine uptake. The cells were then washed three times with cold PBS, lysed with 0.1% SDS, and the amount of polyamine incorporation into the cells was determined by scintillation counting of the cell lysates. […] The Ki values were determined using double reciprocal Lineweaver-Burke plot analyses. Ki values were determined from linear equations derived from graphing the slopes of Lineweaver-Burke plot vs. inhibitor concentration, with Ki=y-intercept/slope.

SK-OV-3 [4] = assay: Growth inhibition assay, PA alone, SK-OV-3; type: cell-based; details: PA alone (no DFMO), six days, repeat determinations, read-out: Cell Line IC50 SK-OV-3
Procedure: as §1

SK-OV-3 [5] = assay: Growth inhibition assay (MTS/PMS) with DFMO, SK-OV-3; type: cell-based; details: in the presence of DFMO (1-5 mM), 1 mM AG, 0.5 μM SPD, six days; repeat determinations; read-out: Cell Line EC50 SK-OV-3
Procedure: as §1

MDA-MB-231 [6] = assay: Growth inhibition assay (MTS/PMS) with DFMO, MDA-MB-231; type: cell-based; details: in the presence of DFMO (1-5 mM), 1 mM AG, 0.5 μM SPD, six days; repeat determinations; read-out: Cell Line EC50 MDA-MB-231
Procedure: as §1

MDA-MB-231 [7] = assay: Growth inhibition assay, PA alone, MDA-MB-231; type: cell-based; details: PA alone (no DFMO), six days; repeat determinations; read-out: Cell Line IC50 MDA-MB-231
Procedure: as §1

PC-3 [8] = assay: Growth inhibition assay (MTS/PMS) with DFMO, PC-3; type: cell-based; details: in the presence of DFMO (1-5 mM), 1 mM AG, 0.5 μM SPD, six days; repeat determinations; read-out: Cell Line EC50 PC-3
Procedure: as §1

A375 [9] = assay: Growth inhibition assay, PA alone, A375; type: cell-based; details: PA alone (no DFMO), six days, repeat determinations, read-out: Cell Line IC50 A375
Procedure: as §1

A375 [10] = assay: Growth inhibition assay (MTS/PMS) with DFMO, A375; type: cell-based; details: in the presence of DFMO (1-5 mM), 1 mM AG, 0.5 μM SPD, six days; repeat determinations; read-out: Cell Line EC50 A375
Procedure: as §1

[11] = amino acid side chain, un-ionized fraction; Wolfenden 1981; cited from earlier work

pEC50 [1] | pIC50 (PC-3 [2]) | pIC50 (SK-OV-3 [4]) | pEC50 (SK-OV-3 [5]) | pEC50 (MDA-MB-231 [6]) | pIC50 (MDA-MB-231 [7]) | pEC50 (PC-3 [8]) | pIC50 (PC-3 [2]; Homo sapiens, PC-3, 144 h) | pIC50 (A375 [9]; Homo sapiens, A-375, 144 h) | pIC50 (SK-OV-3 [4]; Homo sapiens, SK-OV-3, 144 h) | pEC50 (A375 [10]) | pIC50 (A375 [9]) | Structure (SMILES) | pKi [3] | free energy for the transfer from the vapor phase to H2O (hydration potential) [11]
7.14 |  |  | 7.01 and 7.08 and 7.10 |  |  |  |  |  |  | 7.80 and 8.00 and 8.05 |  | CCCCCCCCCCCCCCCCS(=O)(=O)NCCCC[C@H](N)C(=O)NCCCNCCCCNCCCN [IIA10] | 8.40 | 
6.96 | 4.66 and 4.70 | 4.74 and 4.64 | 6.87 and 6.65 | 6.77 | < 4.52 | 7.00 and 7.13 |  |  |  | 7.59 and 7.36 | 4.74 and 4.75 | CCCCCCCCCCCCCCCCS(=O)(=O)NCCCC[C@@H](N)C(=O)NCCCNCCCCNCCCN [IIB10] | 8.70 | 
6.23 | < 4.52 | < 4.52 | 5.80 | 6.31 | < 4.52 | 7.00 |  |  |  | 6.77 | < 4.52 | CCCCCCCC/C=C\CCCCCCCC(=O)NCCCC[C@@H](N)C(=O)NCCCNCCCCNCCCN [IIIB1] | 7.27 | 
7.41 | < 5.52 | < 5.52 | 7.09 | 7.72 | < 5.52 | 7.34 |  |  |  | 8.00 | < 5.52 | CCCCCCCCCCCCCCCCNCCCC[C@H](N)C(=O)NCCCNCCCCNCCCN [IVA11] |  | 
5.99 | < 4.00 | < 4.00 | 6.03 | 5.78 | < 4.00 | 6.15 |  |  |  | 6.13 | < 4.00 | CC(C)(C)CCNCCCC[C@H](N)C(=O)NCCCNCCCCNCCCN [IVA22] |  | 
5.72 | < 4.00 | < 4.00 | 5.64 | 5.45 | < 4.00 | 6.15 |  |  |  | 5.98 | < 4.00 | NCCCNCCCCNCCCNC(=O)[C@@H](N)CCCCNCC1CC2C=CC1C2 (some centres unmarked) [IVA25] |  | 
5.47 | < 4.00 | < 4.00 | 5.12 and 5.22 | 5.70 | < 4.00 | 6.04 and 5.82 |  |  |  | 5.62 | < 4.00 | NCCCNCCCCNCCCNC(=O)[C@H](N)CCCCNCC1CC2CCC1C2 (some centres unmarked) [IVB26] |  | 
5.29 | < 4.00 | 4.17 | 5.02 | 5.10 | < 4.00 | 5.73 |  |  |  | 6.03 | 4.17 | CCCCCCCNCCCC[C@@H](NCCCCCCC)C(=O)NCCCNCCCCNCCCN [IVF6] |  | 
5.75 | < 4.00 | < 4.00 | 5.67 | 5.63 | < 4.00 | 6.30 |  |  |  | 5.66 | < 4.00 | NCCCNCCCCNCCCNC(=O)[C@@H](CCCCNCC1CCCCC1)NCC1CCCCC1 [IVF27] |  | 

Continued, compound first:

Structure (SMILES) | pEC50 [1] | pIC50 (PC-3 [2]) | pIC50 (SK-OV-3 [4]) | pEC50 (SK-OV-3 [5]) | pEC50 (MDA-MB-231 [6]) | pIC50 (MDA-MB-231 [7]) | pEC50 (PC-3 [8]) | pIC50 (PC-3 [2]; Homo sapiens, PC-3, 144 h) | pIC50 (A375 [9]; Homo sapiens, A-375, 144 h) | pIC50 (SK-OV-3 [4]; Homo sapiens, SK-OV-3, 144 h) | pEC50 (A375 [10]) | pIC50 (A375 [9]) | pKi [3] | free energy for the transfer from the vapor phase to H2O (hydration potential) [11]
CCCCCCCCCCCCCCCCCCCC(=O)NCCCC[C@H](N)C(=O)NCCCNCCCCNCCCN [IA1] | 7.77 | < 5.52 | < 5.52 |  |  |  |  |  |  |  |  |  | 7.82 | 
CCCCCCCCCCCCCCCCCC(=O)NCCCC[C@H](N)C(=O)NCCCNCCCCNCCCN [IA2] | 7.85 |  |  | 7.57 and 7.68 |  |  |  |  |  |  |  |  | 8.85 | 
CCCCCCCCCCCCCCCC(=O)NCCCC[C@H](N)C(=O)NCCCNCCCCNCCCN [IA4] | 7.11 |  |  |  |  |  |  |  |  |  |  |  | 8.82 | 
NCCCNCCCCNCCCNC(=O)[C@@H](N)CCCCNC(=O)OCc1ccccc1 [IA40] |  | < 3.52 |  |  | 4.38 and 4.53 | < 3.52 | 5.07 and 5.10 |  |  |  |  |  | 7.41 | 
CCCCCCCCCCCCCCCC(=O)NCCCC[C@@H](N)C(=O)NCCCNCCCCNCCCN [IB4] | 6.98 |  |  |  |  |  |  |  |  |  |  |  | 7.77 | 
CCCCCCCCC(=O)NCCCC[C@@H](N)C(=O)NCCCNCCCCNCCCN [IB6] |  |  |  |  |  |  |  | < 4.52 | < 4.52 | < 4.52 |  |  | 7.12 | 
CC(C)(C)OC(=O)N[C@@H](CCCCN)C(=O)NCCCNCCCCNCCCN [IC41] |  | 3.37 |  |  | 4.43 | < 3.52 | 4.77 |  |  |  |  |  | 6.72 | 
[HH] [hydrogen] |  |  |  |  |  |  |  |  |  |  |  |  |  | 2.39 kcal/mol
C [methane] |  |  |  |  |  |  |  |  |  |  |  |  |  | 1.94 kcal/mol
CCCCN [n-butylamine] |  |  |  |  |  |  |  |  |  |  |  |  |  | -7.00 kcal/mol
CCCNC(=N)N [n-propylguanidine] |  |  |  |  |  |  |  |  |  |  |  |  |  | -14.6 kcal/mol
